Source: the NIST ThermoML archive (doi:10.1021/je3009649)

Details: Liquid, Ebulliometric method (Recirculating still)

CCCCN [1-butanamine]
Details | vapor or sublimation pressure [kPa]
308.3 K | 19.99
314.7 K | 26.66
319.9 K | 33.33
328.2 K | 46.66
334.8 K | 59.99
337.9 K | 66.66
345.1 K | 86.66
350 K | 101.33

CCNCC [diethylamine]
Details | vapor or sublimation pressure [kPa]
294.7 K | 26.66
299.5 K | 33.33
307.6 K | 46.66
316.7 K | 66.66
323.9 K | 86.66
328.3 K | 101.33

C1CCNC1 [pyrrolidine]
Details | vapor or sublimation pressure [kPa]
316.9 K | 19.99
323.4 K | 26.66
329 K | 33.33
337.6 K | 46.66
347.5 K | 66.66
354.9 K | 86.66
359.4 K | 101.33
